According to the supplement of paper PMC11061612:

Key:
Test in all cases: combination Emax (second highest fraction inhibited in the dose matrix, 72 h); higher = more inhibition; extreme values may be limits of the assay
[1] = system: PC-3_[JPC-3] (Lung Adenocarcinoma)
Method in brief: (§1)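 After 24 hours at 37°C and 5% CO2 in 1536-well plates, cells in DMEM/F12 or RPMI plus 10% FBS received two-drug dose matrices for 72 hours. Viability came from CellTiter-Glo 2.0 luminescence and was scaled as inhibition, anchored at 0 by vehicle wells and at 1 by blank wells. Combination Emax is taken as the second-highest inhibition in the matrix, and Bliss excess as the observed combination effect less EA + EB − EA·EB, with EA and EB the single-agent effects.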

[2] = system: REH (B-Lymphoblastic Leukemia)
Method in brief: as §1

[3] = system: NCI-H2342 (Lung Adenocarcinoma)
Method in brief: as §1

[4] = system: OPM-2 (Plasma Cell Myeloma)
Method in brief: as §1

[5] = system: HSC-39 (Gastric Carcinoma)
Method in brief: as §1

[6] = system: VAL (B-Cell Non-Hodgkin's Lymphoma)
Method in brief: as §1

SK-MEL-2 (Melanoma) = system: SK-MEL-2 (Melanoma)
Method in brief: as §1

NB12 (Neuroblastoma) = system: NB12 (Neuroblastoma)
Method in brief: as §1

## N#Cc1cnc(Nc2cc(NC[C@H]3CNCCO3)c(C(F)(F)F)cn2)cn1 [SRA737] + CCc1c2c(nc3ccc(O)cc13)-c1cc3c(c(=O)n1C2)COC(=O)[C@]3(O)CC [SN-38] (first compound max 10 µM, 7x7, partner max 0.3 µM)
[1]
  combination Emax: 0.72
[2]
  combination Emax: 0.991
[3]
  combination Emax: 0.74
[4]
  combination Emax: 0.926
[5]
  combination Emax: 1
[6]
  combination Emax: 0.947
SK-MEL-2 (Melanoma)
  combination Emax: 0.693
NB12 (Neuroblastoma)
  combination Emax: 0.705

## N#Cc1cnc(Nc2cc(NC[C@H]3CNCCO3)c(C(F)(F)F)cn2)cn1 [SRA737] + Nc1ccn([C@@H]2O[C@H](CO)[C@@H](O)C2(F)F)c(=O)n1 [Gemcitabine] (first compound max 10 µM, 7x7, partner max 0.3 µM)
[1]
  combination Emax: 0.6
[2]
  combination Emax: 0.989
[3]
  combination Emax: 0.841
[4]
  combination Emax: 0.911
[5]
  combination Emax: 1
[6]
  combination Emax: 0.809
SK-MEL-2 (Melanoma)
  combination Emax: 0.504
NB12 (Neuroblastoma)
  combination Emax: 0.742

## N#Cc1cnc(Nc2cc(NC[C@H]3CNCCO3)c(C(F)(F)F)cn2)cn1 [SRA737] + O=c1[nH]cc(F)c(=O)[nH]1 [5-Fluorouracil] (first compound max 10 µM, 7x7, partner max 20 µM)
[1]
  combination Emax: 0.102
[2]
  combination Emax: 0.798
[3]
  combination Emax: 0.1
[4]
  combination Emax: 0.84
[5]
  combination Emax: 1
[6]
  combination Emax: 0.775
SK-MEL-2 (Melanoma)
  combination Emax: 0.113
NB12 (Neuroblastoma)
  combination Emax: 0.173

## Cc1nc(-c2cn3c(n2)-c2ccc(-c4cnn(C(C)(C)C(N)=O)c4)cc2OCC3)n(C(C)C)n1 [Taselisib] + O=C(Nc1ccc2[nH]nc(-c3ccncc3)c2c1)[C@@H]1CCN(CC(=O)N2CCN(c3ccc(-c4ncccn4)cc3)CC2)C1 [SCH772984] (first compound max 10 µM, 7x7, partner max 5 µM)
[1]
  combination Emax: 0.665
[2]
  combination Emax: 0.477
[3]
  combination Emax: 0.431
[4]
  combination Emax: 1
[5]
  combination Emax: 0.985
[6]
  combination Emax: 0.6
SK-MEL-2 (Melanoma)
  combination Emax: 0.968
NB12 (Neuroblastoma)
  combination Emax: 0.684

## CC1(C)CCC(CN2CCN(c3ccc(C(=O)NS(=O)(=O)c4ccc(NCC5CCOCC5)c([N+](=O)[O-])c4)c(Oc4cnc5[nH]ccc5c4)c3)CC2)=C(c2ccc(Cl)cc2)C1 [Venetoclax] + CS(=O)(=O)CCNCc1ccc(-c2ccc3ncnc(Nc4ccc(OCc5cccc(F)c5)c(Cl)c4)c3c2)o1 [Lapatinib] (first compound max 1 µM, 7x7, partner max 10 µM)
[1]
  combination Emax: 0.568
[2]
  combination Emax: 0.916
[3]
  combination Emax: 0.183
[4]
  combination Emax: 0.64
[5]
  combination Emax: 0.915
[6]
  combination Emax: 1
SK-MEL-2 (Melanoma)
  combination Emax: 0.174
NB12 (Neuroblastoma)
  combination Emax: 0.915
